Test [1] concerns the target T1, Apoptotic protease-activating factor 1 (Homo sapiens, UniProt O14727).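 Further: caspase-3 cleavage of fluorogenic Rh110 DEVD substrate downstream of apoptosome activation.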
T1 sequence (O14727 whole entry): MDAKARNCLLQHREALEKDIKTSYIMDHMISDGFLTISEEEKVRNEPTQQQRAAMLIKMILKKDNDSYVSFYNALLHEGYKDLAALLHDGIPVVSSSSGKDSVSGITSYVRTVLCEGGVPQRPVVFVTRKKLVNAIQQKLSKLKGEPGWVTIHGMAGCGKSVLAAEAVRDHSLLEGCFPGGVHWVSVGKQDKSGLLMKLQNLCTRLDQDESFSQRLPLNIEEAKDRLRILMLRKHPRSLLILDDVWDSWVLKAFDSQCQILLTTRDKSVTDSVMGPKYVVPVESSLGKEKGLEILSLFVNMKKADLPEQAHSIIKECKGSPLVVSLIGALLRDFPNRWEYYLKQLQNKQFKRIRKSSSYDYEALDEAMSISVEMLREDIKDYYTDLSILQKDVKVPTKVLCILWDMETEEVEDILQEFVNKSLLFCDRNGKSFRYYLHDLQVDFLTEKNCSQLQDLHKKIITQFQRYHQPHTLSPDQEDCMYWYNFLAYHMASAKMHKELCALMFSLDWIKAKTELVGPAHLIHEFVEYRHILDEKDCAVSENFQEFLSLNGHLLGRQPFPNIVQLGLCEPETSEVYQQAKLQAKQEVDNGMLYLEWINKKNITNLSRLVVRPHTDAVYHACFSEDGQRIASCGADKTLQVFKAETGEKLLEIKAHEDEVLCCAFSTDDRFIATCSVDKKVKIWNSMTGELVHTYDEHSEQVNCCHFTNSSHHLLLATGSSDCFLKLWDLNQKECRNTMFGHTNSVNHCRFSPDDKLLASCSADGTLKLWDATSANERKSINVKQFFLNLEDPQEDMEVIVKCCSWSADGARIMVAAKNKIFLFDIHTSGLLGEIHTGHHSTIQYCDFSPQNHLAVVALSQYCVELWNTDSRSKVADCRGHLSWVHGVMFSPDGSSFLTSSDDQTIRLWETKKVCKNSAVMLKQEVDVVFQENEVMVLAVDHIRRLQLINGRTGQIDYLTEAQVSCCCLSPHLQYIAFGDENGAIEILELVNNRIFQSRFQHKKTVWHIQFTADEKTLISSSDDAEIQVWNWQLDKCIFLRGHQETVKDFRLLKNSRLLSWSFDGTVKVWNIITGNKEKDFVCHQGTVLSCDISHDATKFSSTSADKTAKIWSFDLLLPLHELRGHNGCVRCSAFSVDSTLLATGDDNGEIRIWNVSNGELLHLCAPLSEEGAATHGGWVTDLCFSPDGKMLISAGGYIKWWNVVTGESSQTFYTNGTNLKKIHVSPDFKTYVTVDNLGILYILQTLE
Description: SAR analysis of small molecule Activators of Apaf-1 in a Fluorescent assay. The following applies: read-out: EC50_Mean. It is filed as functional.

The target in test [2] is Aurora kinase A (Homo sapiens, UniProt O14965). It is filed as functional.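 Further: value from the Navigating the Kinome kinase panel profiling, panel entry STK6.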
Sequence of Aurora kinase A (O14965 whole entry): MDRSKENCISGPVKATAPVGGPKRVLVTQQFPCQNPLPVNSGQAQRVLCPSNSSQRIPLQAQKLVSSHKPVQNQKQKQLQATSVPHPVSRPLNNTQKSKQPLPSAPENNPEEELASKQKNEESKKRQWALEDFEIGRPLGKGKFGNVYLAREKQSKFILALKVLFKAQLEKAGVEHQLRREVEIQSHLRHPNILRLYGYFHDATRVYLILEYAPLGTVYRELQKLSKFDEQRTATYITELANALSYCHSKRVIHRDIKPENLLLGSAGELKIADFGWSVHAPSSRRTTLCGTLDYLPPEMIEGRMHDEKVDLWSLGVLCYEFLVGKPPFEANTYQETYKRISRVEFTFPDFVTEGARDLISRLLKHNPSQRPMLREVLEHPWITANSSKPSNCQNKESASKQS
For test [3], the target named is Vascular endothelial growth factor receptor 2 (Homo sapiens, UniProt P35968). Type of test: functional.
Sequence of Vascular endothelial growth factor receptor 2 (P35968 whole entry): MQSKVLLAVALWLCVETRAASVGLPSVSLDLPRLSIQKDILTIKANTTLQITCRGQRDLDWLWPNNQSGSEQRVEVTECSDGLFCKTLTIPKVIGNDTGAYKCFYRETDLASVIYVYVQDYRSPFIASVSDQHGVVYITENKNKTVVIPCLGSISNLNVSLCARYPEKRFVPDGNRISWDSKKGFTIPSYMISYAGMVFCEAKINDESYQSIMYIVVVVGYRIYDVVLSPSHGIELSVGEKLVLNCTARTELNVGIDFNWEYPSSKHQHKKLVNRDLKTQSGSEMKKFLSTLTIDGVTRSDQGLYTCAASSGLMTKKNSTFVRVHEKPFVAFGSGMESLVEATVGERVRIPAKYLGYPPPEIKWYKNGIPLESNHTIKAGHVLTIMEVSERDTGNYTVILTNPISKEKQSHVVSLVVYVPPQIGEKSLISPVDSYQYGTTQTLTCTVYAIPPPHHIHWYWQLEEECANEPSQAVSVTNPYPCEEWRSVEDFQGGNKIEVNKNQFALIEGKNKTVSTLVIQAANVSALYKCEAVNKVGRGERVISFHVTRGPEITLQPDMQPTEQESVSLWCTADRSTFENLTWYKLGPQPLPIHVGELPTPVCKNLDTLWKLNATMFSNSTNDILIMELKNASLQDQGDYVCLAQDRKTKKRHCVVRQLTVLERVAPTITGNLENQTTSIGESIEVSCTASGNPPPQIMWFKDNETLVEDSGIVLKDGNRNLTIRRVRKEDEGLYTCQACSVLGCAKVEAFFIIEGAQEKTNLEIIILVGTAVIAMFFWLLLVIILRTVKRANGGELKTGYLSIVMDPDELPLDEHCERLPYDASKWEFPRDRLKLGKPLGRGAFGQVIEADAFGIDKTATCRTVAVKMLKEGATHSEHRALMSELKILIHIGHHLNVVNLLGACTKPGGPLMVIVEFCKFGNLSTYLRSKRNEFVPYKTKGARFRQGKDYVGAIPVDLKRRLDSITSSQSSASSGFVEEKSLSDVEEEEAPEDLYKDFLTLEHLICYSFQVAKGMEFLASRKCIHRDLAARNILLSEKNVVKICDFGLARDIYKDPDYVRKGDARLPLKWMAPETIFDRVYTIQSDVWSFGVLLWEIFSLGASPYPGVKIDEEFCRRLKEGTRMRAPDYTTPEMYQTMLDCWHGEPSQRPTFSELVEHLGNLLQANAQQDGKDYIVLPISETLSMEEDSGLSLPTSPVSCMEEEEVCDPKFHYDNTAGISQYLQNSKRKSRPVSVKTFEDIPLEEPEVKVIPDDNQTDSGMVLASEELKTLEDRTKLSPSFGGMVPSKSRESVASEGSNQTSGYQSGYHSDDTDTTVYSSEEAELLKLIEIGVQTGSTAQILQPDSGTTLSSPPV
The target of test [4] is Aurora kinase B (Homo sapiens, UniProt Q96GD4). Type of test: functional.
Sequence of Aurora kinase B (Q96GD4 whole entry): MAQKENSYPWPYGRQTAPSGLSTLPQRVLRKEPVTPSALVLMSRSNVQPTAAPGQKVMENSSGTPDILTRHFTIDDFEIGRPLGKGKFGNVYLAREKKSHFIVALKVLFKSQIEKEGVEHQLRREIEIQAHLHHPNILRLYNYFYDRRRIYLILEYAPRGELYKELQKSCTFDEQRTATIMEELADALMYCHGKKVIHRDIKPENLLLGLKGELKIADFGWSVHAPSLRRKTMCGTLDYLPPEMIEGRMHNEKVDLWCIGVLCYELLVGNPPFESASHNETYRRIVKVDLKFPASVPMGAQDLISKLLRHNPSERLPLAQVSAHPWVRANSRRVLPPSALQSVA
For test [5], the system named is H9c2. Description: cells. The note with it: Rattus norvegicus, H9c2, Myocardium. It is filed as functional, cell-based.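 Further: confirmatory concentration-response retest of ultra-high-throughput screening hits for modulation of myocardial damage; cell death induced by hydrogen peroxide oxidative stress; compound pretreatment for 60 min then peroxide exposure for 2 h; potency is for protecting the cells against peroxide damage rather than for killing them.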
Test [6] in a line: THP-1 cell cytotoxicity, cytotoxicity control, set 4 (AID 504911). It is filed as functional. The following applies: Mycobacterium tuberculosis.
For test [7], the target named is T2, Sentrin-specific protease 8 (Homo sapiens, UniProt Q96LD8).
T2 sequence (Q96LD8 whole entry): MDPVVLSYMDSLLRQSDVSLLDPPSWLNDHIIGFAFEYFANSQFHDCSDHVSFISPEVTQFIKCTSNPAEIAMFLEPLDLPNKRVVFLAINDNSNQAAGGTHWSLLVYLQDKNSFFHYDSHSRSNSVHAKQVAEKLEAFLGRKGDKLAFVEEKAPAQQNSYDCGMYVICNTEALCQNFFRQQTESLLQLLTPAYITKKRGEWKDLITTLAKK
Description: SENP8 protease inhibitors, SAR follow-up, biochemical, luminescence (AID 504501). It is filed as functional.

Test [8] concerns the target T3, Caspase-3 (Homo sapiens, UniProt P42574).
T3 sequence (P42574 whole entry): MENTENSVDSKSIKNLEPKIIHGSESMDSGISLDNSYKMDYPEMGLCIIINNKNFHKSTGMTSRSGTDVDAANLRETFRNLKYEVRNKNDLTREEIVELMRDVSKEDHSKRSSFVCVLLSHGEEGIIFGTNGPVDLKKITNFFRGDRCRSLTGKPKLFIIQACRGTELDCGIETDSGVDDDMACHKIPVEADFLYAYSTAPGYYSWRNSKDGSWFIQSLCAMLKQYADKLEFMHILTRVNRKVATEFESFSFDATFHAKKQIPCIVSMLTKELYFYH
Briefly: SAR Analysis of small molecule inhibitors of Sentrin-specific proteases (SENPs) using a Caspase-3 Selectivity assay. [Related pubchem assays (depositor defined):AID2540, AID2599, AID434973, AID489001]. It is filed as functional.

The target in test [9] is T4, Sentrin-specific protease 6 (Homo sapiens, UniProt Q9GZR1).
T4 sequence (Q9GZR1 whole entry): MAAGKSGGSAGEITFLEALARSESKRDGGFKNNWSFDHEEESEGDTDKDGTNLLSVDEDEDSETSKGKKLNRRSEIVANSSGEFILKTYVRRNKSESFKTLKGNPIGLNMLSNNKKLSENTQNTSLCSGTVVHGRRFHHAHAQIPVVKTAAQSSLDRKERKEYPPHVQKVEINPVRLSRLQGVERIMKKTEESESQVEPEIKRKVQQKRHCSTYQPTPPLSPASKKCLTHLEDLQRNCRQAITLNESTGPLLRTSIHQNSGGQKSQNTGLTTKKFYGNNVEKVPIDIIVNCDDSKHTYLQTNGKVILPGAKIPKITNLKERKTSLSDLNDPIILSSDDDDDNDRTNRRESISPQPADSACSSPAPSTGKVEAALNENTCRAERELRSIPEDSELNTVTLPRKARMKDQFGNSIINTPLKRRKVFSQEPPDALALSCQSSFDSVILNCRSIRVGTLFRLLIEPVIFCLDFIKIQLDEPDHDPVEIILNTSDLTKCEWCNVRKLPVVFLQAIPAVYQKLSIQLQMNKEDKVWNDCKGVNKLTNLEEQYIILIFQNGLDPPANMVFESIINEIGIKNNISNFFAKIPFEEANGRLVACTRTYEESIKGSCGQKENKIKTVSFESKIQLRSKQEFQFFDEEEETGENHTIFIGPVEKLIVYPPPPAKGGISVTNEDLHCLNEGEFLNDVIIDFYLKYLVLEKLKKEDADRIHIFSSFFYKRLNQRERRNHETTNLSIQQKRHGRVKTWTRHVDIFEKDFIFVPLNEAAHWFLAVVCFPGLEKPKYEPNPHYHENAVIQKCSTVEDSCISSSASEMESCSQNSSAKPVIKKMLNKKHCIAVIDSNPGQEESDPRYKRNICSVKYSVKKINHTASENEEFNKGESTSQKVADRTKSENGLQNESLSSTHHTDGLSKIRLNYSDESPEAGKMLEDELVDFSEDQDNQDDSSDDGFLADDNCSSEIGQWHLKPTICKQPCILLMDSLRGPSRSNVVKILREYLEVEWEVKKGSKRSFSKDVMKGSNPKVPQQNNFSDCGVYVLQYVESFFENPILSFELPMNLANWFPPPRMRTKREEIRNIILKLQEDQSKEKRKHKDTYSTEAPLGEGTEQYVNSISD
Briefly: SAR Analysis of small molecule inhibitors of Sentrin-specific protease 6 (SENP6) using a Luminescent assay. [Related pubchem assays (depositor defined):AID2582, AID2599]. Type of test: functional.

Test [10] deals with T5, Sentrin-specific protease 7 (Homo sapiens, UniProt Q9BQF6).
T5 sequence (Q9BQF6 whole entry): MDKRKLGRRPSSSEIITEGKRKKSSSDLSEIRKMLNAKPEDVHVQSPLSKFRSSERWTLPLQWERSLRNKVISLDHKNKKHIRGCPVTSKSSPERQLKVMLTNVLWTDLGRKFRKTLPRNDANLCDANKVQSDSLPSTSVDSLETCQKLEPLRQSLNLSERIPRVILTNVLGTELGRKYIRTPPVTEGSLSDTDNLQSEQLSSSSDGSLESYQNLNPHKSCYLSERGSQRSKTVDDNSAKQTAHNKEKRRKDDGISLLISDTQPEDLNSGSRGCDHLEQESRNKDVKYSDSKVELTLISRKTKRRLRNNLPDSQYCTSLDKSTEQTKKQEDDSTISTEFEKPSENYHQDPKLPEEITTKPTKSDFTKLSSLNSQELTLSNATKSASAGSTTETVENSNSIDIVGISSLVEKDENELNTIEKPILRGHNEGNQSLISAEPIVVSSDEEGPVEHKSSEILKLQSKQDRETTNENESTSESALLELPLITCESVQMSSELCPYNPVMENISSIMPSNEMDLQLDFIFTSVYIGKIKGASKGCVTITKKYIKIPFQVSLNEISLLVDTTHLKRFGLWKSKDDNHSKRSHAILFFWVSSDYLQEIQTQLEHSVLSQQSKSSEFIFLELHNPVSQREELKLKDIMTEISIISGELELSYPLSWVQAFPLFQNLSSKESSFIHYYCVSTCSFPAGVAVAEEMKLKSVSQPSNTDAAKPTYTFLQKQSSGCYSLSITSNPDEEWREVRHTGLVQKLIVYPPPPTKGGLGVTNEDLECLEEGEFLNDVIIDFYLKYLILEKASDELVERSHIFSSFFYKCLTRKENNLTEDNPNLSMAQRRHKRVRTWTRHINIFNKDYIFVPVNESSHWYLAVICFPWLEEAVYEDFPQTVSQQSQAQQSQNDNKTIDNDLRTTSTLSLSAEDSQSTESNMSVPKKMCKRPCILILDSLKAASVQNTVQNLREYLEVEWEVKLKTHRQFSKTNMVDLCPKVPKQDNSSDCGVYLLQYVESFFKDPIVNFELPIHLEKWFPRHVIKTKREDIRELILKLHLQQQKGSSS
Description: SENP7 protease inhibitors, SAR follow-up, biochemical, luminescence (AID 504497). It is filed as functional.

Calls of active or inactive are those of the source.

As to `CCOC(=O)C1CCc2[nH]c3ccc(OC)cc3c2C1` (stereo not drawn), the EC50 in test [1] is > 100 µM (inactive).

Regarding `O=C(Nc1ccc(-n2cnc3ccccc32)cc1)Nc1cccc(C(F)(F)F)c1`, the Ki – broadly, the equilibrium dissociation constant of an inhibitor or competing ligand from its target – in [2] was 0.501 µM (active); in test [3], 0.00316 µM (active); in test [4], 0.00251 µM (active).

For `O=C(CSc1nc(O)c2ccccc2n1)N1CCOCC1`, the 50% inhibitory concentration (IC50) (usually the concentration that gives 50% inhibition) in [5] is 25.9 µM (active). In addition, the cytotoxic concentration (CC50) – broadly, the concentration at which the toxic effect on the cells reaches its halfway point – in test [6] was > 100 µM (active).

Turning to `N#Cc1ccc(-c2nc(/C=C/c3ccccc3)no2)cc1`, the IC50 in test [7], in [8], in test [9] and in [10] was > 99 µM (inactive) throughout.

Take `NC(=NO)c1cccc(S(=O)(=O)Nc2ccc3c(c2)C(=NO)c2ccccc2-3)c1`: the inhibition constant Ki is 1 µM (active) in [2], > 5.01 µM (inactive) in [3] and 0.02 µM (active) in [4].

For the origin of these results see ChEMBL document CHEMBL1201862, “PubChem BioAssay data set” (2004).
